Values of other authors, collected in patent US10071030B2, “Carrier comprising non-neutralised tocopheryl phosphate” (Phosphagenics Limited, priority 2010, dated 2018).

Settings: from dietary sources

bioavailable fraction of CoQ10: 5 to 10%
SMILES: COC1=C(OC)C(=O)C(C/C=C(\C)CC/C=C(\C)CC/C=C(\C)CC/C=C(\C)CC/C=C(\C)CC/C=C(\C)CC/C=C(\C)CC/C=C(\C)CC/C=C(\C)CCC=C(C)C)=C(C)C1=O [CoQ10, ubiquinone]
